Results as given in PMC4821887, “Identification of chemicals that mimic transcriptional changes associated with autism, brain aging and neurodegeneration” (Nature Communications, 2016).

System: mouse cortical cultures
Assay: RNA-seq differential expression (DESeq) against matched vehicle
Assay type: cell-based
Set-up: key to MeanFenamidone Bcl11b / MeanFenamidone Slc12a4 / MeanFenamidone Abca1 / MeanFenamidone Hmox1 / MeanFenamidone Il1rap / MeanFenamidone Cyba / MeanFenamidone Narf / MeanFenamidone Bnip3 / MeanFenamidone Amotl2 / MeanFenamidone Gad2 / MeanFenamidone Vsnl1 / MeanFenamidone Fam178a: DESeq mean of counts over RefSeq exons
Protocol: Figure 4 Cluster 2 chemicals alter expression of a common set of genes. […] RNA-seq was performed in quadruplicate after treating cortical cultures with fenamidone (10 μM) or pyraclostrobin (0.1 μM) for 24 h (n=3 biological replicates) and compared with matched vehicle controls using DESeq to detect differentially expressed genes, listed in Supplementary Data 4.
Cultures were treated with the non-cytotoxic dose of each chemical, by exchanging half of the original medium with chemicals at 2 × concentration in prewarmed feeding medium, on DIV 7 for 24 h in 12-well plates at a density of 5 × 10^5 cells per well. RNA was isolated using RNeasy plus mini kit (Cat. #74134, Qiagen). […]. Samples were further assessed for quality using either an Agilent Bioanalyzer 2100 or TapeStation 2200 to obtain a RIN. RIN values exceeding 7 were used for sequencing. RNA samples were used to generate and barcode complementary DNA libraries using the TruSeq RNA Library Preparation Kit at the UNC High Throughput Sequencing Facility. Pools of 24 multiplexed samples were sequenced per lane on an Illumina HiSeq 2500 using 50-bp paired-end reads.
RNA-seq reads were filtered using TagDust and aligned to the reference mouse genome (mm9) with TopHat using default parameters. Reads aligning to ribosomal RNA genes were removed. Transcript abundance was estimated by computing Reads per kilobase per million mapped reads (RPKM) using RefSeq gene models aggregated by gene symbol. For differential expression analyses, raw counts over RefSeq exons were used, and then were compared across samples using DESeq[62].

Compound: CSC1=N[C@@](C)(c2ccccc2)C(=O)N1Nc1ccccc1 [fenamidone]
- MeanFenamidone (gene Dclk1): 2436.98
- log2FoldChange (gene Dclk1): -1.095
- MeanFenamidone (gene Dcxr): 235.507
- log2FoldChange (gene Dcxr): 3.058
- MeanFenamidone (gene Diras1): 170.873
- log2FoldChange (gene Diras1): -1.25
- MeanFenamidone (gene Dlg2): 695.294
- log2FoldChange (gene Dlg2): -1.3121
- MeanFenamidone Dlx1as (gene Dlx1as, DESeq mean, 4 reps): 22.8822
- log2FoldChange Dlx1as (gene Dlx1as, vs vehicle, 4 reps): -2.397
- MeanFenamidone (gene Dnaja1): 313.407
- log2FoldChange (gene Dnaja1): -1.061
- MeanFenamidone Dnm3 (gene Dnm3, DESeq mean, 4 reps): 187.1
- log2FoldChange Dnm3 (gene Dnm3, vs vehicle, 4 reps): -1.706
- MeanFenamidone Dpp10 (gene Dpp10, DESeq mean, 4 reps): 62.8613
- log2FoldChange Dpp10 (gene Dpp10, vs vehicle, 4 reps): -1.776
- MeanFenamidone Dzank1 (gene Dzank1, DESeq mean, 4 reps): 112.179
- log2FoldChange Dzank1 (gene Dzank1, vs vehicle, 4 reps): -1.428
- MeanFenamidone Eda2r (gene Eda2r, DESeq mean, 4 reps): 436.944
- log2FoldChange Eda2r (gene Eda2r, vs vehicle, 4 reps): 1.783
- MeanFenamidone Efemp1 (gene Efemp1, DESeq mean, 4 reps): 94.4395
- log2FoldChange Efemp1 (gene Efemp1, vs vehicle, 4 reps): 2.414
- MeanFenamidone (gene Egfr): 148.93
- log2FoldChange (gene Egfr): 1.836
- MeanFenamidone Eif4ebp1 (gene Eif4ebp1, DESeq mean, 4 reps): 125.436
- log2FoldChange Eif4ebp1 (gene Eif4ebp1, vs vehicle, 4 reps): 2.511
- MeanFenamidone Elavl2 (gene Elavl2, DESeq mean, 4 reps): 207.006
- log2FoldChange Elavl2 (gene Elavl2, vs vehicle, 4 reps): -1.527
- MeanFenamidone Elovl1 (gene Elovl1, DESeq mean, 4 reps): 104.754
- log2FoldChange Elovl1 (gene Elovl1, vs vehicle, 4 reps): 2.586
- MeanFenamidone (gene Enox1): 25.4463
- log2FoldChange (gene Enox1): -1.757
- MeanFenamidone (gene Epas1): 154.593
- log2FoldChange (gene Epas1): 2.42
- MeanFenamidone Ephx1 (gene Ephx1, DESeq mean, 4 reps): 789.724
- log2FoldChange Ephx1 (gene Ephx1, vs vehicle, 4 reps): 1.959
- MeanFenamidone (gene Epm2aip1): 711.569
- log2FoldChange (gene Epm2aip1): -0.9776
- MeanFenamidone (gene Etfb): 102.831
- log2FoldChange (gene Etfb): 1.903
- MeanFenamidone (gene Evc): 45.1413
- log2FoldChange (gene Evc): 1.984
- MeanFenamidone F2r (gene F2r, DESeq mean, 4 reps): 1216.46
- log2FoldChange F2r (gene F2r, vs vehicle, 4 reps): 2.012
- MeanFenamidone F3 (gene F3, DESeq mean, 4 reps): 324.561
- log2FoldChange F3 (gene F3, vs vehicle, 4 reps): 2.464
- MeanFenamidone (gene Fam78b): 119.127
- log2FoldChange (gene Fam78b): -1.289
- MeanFenamidone Fam163b (gene Fam163b, DESeq mean, 4 reps): 135.664
- log2FoldChange Fam163b (gene Fam163b, vs vehicle, 4 reps): -1.491
- MeanFenamidone Fam178a (gene Fam178a, DESeq mean, 4 reps): 780.387
- log2FoldChange Fam178a (gene Fam178a, vs vehicle, 4 reps): 1.493
- MeanFenamidone Fat1 (gene Fat1, DESeq mean, 4 reps): 2188.76
- log2FoldChange Fat1 (gene Fat1, vs vehicle, 4 reps): 1.677
- MeanFenamidone Fbn1 (gene Fbn1, DESeq mean, 4 reps): 159.478
- log2FoldChange Fbn1 (gene Fbn1, vs vehicle, 4 reps): 2.303
- MeanFenamidone Fbxo9 (gene Fbxo9, DESeq mean, 4 reps): 32.2944
- log2FoldChange Fbxo9 (gene Fbxo9, vs vehicle, 4 reps): -2.181
- MeanFenamidone Fermt2 (gene Fermt2, DESeq mean, 4 reps): 437.255
- log2FoldChange Fermt2 (gene Fermt2, vs vehicle, 4 reps): 1.474
- MeanFenamidone (gene Fgf13): 224.473
- log2FoldChange (gene Fgf13): -1.202
- MeanFenamidone Fgfr3 (gene Fgfr3, DESeq mean, 4 reps): 309.362
- log2FoldChange Fgfr3 (gene Fgfr3, vs vehicle, 4 reps): 1.548
- MeanFenamidone Fkbp9 (gene Fkbp9, DESeq mean, 4 reps): 763.489
- log2FoldChange Fkbp9 (gene Fkbp9, vs vehicle, 4 reps): 1.78
- MeanFenamidone Flna (gene Flna, DESeq mean, 4 reps): 4335.97
- log2FoldChange Flna (gene Flna, vs vehicle, 4 reps): 1.783
- MeanFenamidone Flnb (gene Flnb, DESeq mean, 4 reps): 1183.24
- log2FoldChange Flnb (gene Flnb, vs vehicle, 4 reps): 2.364
- MeanFenamidone Flnc (gene Flnc, DESeq mean, 4 reps): 270.515
- log2FoldChange Flnc (gene Flnc, vs vehicle, 4 reps): 3.121
- MeanFenamidone Fn1 (gene Fn1, DESeq mean, 4 reps): 2242.75
- log2FoldChange Fn1 (gene Fn1, vs vehicle, 4 reps): 2.874
- MeanFenamidone (gene Fzd7): 201.665
- log2FoldChange (gene Fzd7): 1.705
- MeanFenamidone Gad1 (gene Gad1, DESeq mean, 4 reps): 102.047
- log2FoldChange Gad1 (gene Gad1, vs vehicle, 4 reps): -2.011
- MeanFenamidone Gad2 (gene Gad2, DESeq mean, 4 reps): 49.2241
- log2FoldChange Gad2 (gene Gad2, vs vehicle, 4 reps): -2.6503
- MeanFenamidone (gene Gas6): 1188.11
- log2FoldChange (gene Gas6): 1.393
- MeanFenamidone (gene Gas7): 704.19
- log2FoldChange (gene Gas7): -1.128
- MeanFenamidone Gdf15 (gene Gdf15, DESeq mean, 4 reps): 107.196
- log2FoldChange Gdf15 (gene Gdf15, vs vehicle, 4 reps): 3.431
- MeanFenamidone (gene Glis2): 157.775
- log2FoldChange (gene Glis2): 1.455
- MeanFenamidone Gls (gene Gls, DESeq mean, 4 reps): 297.391
- log2FoldChange Gls (gene Gls, vs vehicle, 4 reps): -1.569
- MeanFenamidone Gm5424 (gene Gm5424, DESeq mean, 4 reps): 1293.84
- log2FoldChange Gm5424 (gene Gm5424, vs vehicle, 4 reps): 2.267
- MeanFenamidone (gene Gng2): 1878.98
- log2FoldChange (gene Gng2): -1.047
- MeanFenamidone Gpnmb (gene Gpnmb, DESeq mean, 4 reps): 552.991
- log2FoldChange Gpnmb (gene Gpnmb, vs vehicle, 4 reps): 3.791
- MeanFenamidone (gene Gpr22): 61.8379
- log2FoldChange (gene Gpr22): -1.6935
- MeanFenamidone Gpr88 (gene Gpr88, DESeq mean, 4 reps): 81.4648
- log2FoldChange Gpr88 (gene Gpr88, vs vehicle, 4 reps): -2.268
- MeanFenamidone Gpx1 (gene Gpx1, DESeq mean, 4 reps): 550.81
- log2FoldChange Gpx1 (gene Gpx1, vs vehicle, 4 reps): 1.571
- MeanFenamidone Grik3 (gene Grik3, DESeq mean, 4 reps): 96.3695
- log2FoldChange Grik3 (gene Grik3, vs vehicle, 4 reps): -2.234
- MeanFenamidone (DESeq mean normalized counts) (gene Grin1os, Fenamidone, 4 reps, vs matched vehicle): 76.6399
- MeanFenamidone (gene Grm5): 468.182
- log2FoldChange (gene Grm5): -1.139
- MeanFenamidone Gss (gene Gss, DESeq mean, 4 reps): 95.0873
- log2FoldChange Gss (gene Gss, vs vehicle, 4 reps): 2.127
- MeanFenamidone Gstm1 (gene Gstm1, DESeq mean, 4 reps): 533.415
- log2FoldChange Gstm1 (gene Gstm1, vs vehicle, 4 reps): 2.03
- MeanFenamidone (gene Gtse1): 113.042
- log2FoldChange (gene Gtse1): 1.636
- MeanFenamidone Gxylt2 (gene Gxylt2, DESeq mean, 4 reps): 58.8169
- log2FoldChange Gxylt2 (gene Gxylt2, vs vehicle, 4 reps): 2.562
- MeanFenamidone Hbegf (gene Hbegf, DESeq mean, 4 reps): 726.667
- log2FoldChange Hbegf (gene Hbegf, vs vehicle, 4 reps): 2.744
- MeanFenamidone (gene Hivep2): 554.938
- log2FoldChange (gene Hivep2): -0.989
- MeanFenamidone Hmox1 (gene Hmox1, DESeq mean, 4 reps): 1318.42
- log2FoldChange Hmox1 (gene Hmox1, vs vehicle, 4 reps): 3.72
- MeanFenamidone Hspg2 (gene Hspg2, DESeq mean, 4 reps): 1082.79
- log2FoldChange Hspg2 (gene Hspg2, vs vehicle, 4 reps): 3.326
- MeanFenamidone Icam1 (gene Icam1, DESeq mean, 4 reps): 359.44
- log2FoldChange Icam1 (gene Icam1, vs vehicle, 4 reps): 2.082
- MeanFenamidone Igdcc4 (gene Igdcc4, DESeq mean, 4 reps): 745.33
- log2FoldChange Igdcc4 (gene Igdcc4, vs vehicle, 4 reps): 1.594
- MeanFenamidone Il1rap (gene Il1rap, DESeq mean, 4 reps): 123.358
- log2FoldChange Il1rap (gene Il1rap, vs vehicle, 4 reps): 1.873
- MeanFenamidone Inf2 (gene Inf2, DESeq mean, 4 reps): 157.523
- log2FoldChange Inf2 (gene Inf2, vs vehicle, 4 reps): 1.741
- MeanFenamidone (gene Irs1): 506.425
- log2FoldChange (gene Irs1): 1.154
- MeanFenamidone Itga3 (gene Itga3, DESeq mean, 4 reps): 452.545
- log2FoldChange Itga3 (gene Itga3, vs vehicle, 4 reps): 2.403
- MeanFenamidone Itga5 (gene Itga5, DESeq mean, 4 reps): 86.8768
- log2FoldChange Itga5 (gene Itga5, vs vehicle, 4 reps): 3.801
- MeanFenamidone Itga6 (gene Itga6, DESeq mean, 4 reps): 547.54
- log2FoldChange Itga6 (gene Itga6, vs vehicle, 4 reps): 1.506
- MeanFenamidone Itga7 (gene Itga7, DESeq mean, 4 reps): 82.7144
- log2FoldChange Itga7 (gene Itga7, vs vehicle, 4 reps): 2.577
- MeanFenamidone Itgav (gene Itgav, DESeq mean, 4 reps): 659.409
- log2FoldChange Itgav (gene Itgav, vs vehicle, 4 reps): 1.938
- MeanFenamidone Itgb1 (gene Itgb1, DESeq mean, 4 reps): 2073.15
- log2FoldChange Itgb1 (gene Itgb1, vs vehicle, 4 reps): 1.665
- MeanFenamidone (gene Kcnc2): 16.7005
- log2FoldChange (gene Kcnc2): -1.836
- MeanFenamidone Kcnh3 (gene Kcnh3, DESeq mean, 4 reps): 28.6602
- log2FoldChange Kcnh3 (gene Kcnh3, vs vehicle, 4 reps): -2.172
- MeanFenamidone Kcnv1 (gene Kcnv1, DESeq mean, 4 reps): 52.8142
- log2FoldChange Kcnv1 (gene Kcnv1, vs vehicle, 4 reps): -2.08
- MeanFenamidone (gene Kctd12): 687.782
- log2FoldChange (gene Kctd12): -1.125
- MeanFenamidone Kdelc2 (gene Kdelc2, DESeq mean, 4 reps): 146.187
- log2FoldChange Kdelc2 (gene Kdelc2, vs vehicle, 4 reps): 1.909
- MeanFenamidone Kif1c (gene Kif1c, DESeq mean, 4 reps): 782.878
- log2FoldChange Kif1c (gene Kif1c, vs vehicle, 4 reps): 2.167
